{"source": "patent US12337010B2", "about": "“Compositions and methods of treatment using nicotinamide mononucleotide” (Washington University, priority 2017, dated 2025)", "key": {"Slc12a8": {"target": "T1, Slc12a8 (Mus musculus, UniProt Q8VI23)", "T1 construct": "NIH3T3 cells were transfected with 5 μg of pCXN2 carrying the full-length Slc12a8 cDNA (Slc12a8-OE); expressed in transfected cells", "T1 sequence (Q8VI23 1-705)": "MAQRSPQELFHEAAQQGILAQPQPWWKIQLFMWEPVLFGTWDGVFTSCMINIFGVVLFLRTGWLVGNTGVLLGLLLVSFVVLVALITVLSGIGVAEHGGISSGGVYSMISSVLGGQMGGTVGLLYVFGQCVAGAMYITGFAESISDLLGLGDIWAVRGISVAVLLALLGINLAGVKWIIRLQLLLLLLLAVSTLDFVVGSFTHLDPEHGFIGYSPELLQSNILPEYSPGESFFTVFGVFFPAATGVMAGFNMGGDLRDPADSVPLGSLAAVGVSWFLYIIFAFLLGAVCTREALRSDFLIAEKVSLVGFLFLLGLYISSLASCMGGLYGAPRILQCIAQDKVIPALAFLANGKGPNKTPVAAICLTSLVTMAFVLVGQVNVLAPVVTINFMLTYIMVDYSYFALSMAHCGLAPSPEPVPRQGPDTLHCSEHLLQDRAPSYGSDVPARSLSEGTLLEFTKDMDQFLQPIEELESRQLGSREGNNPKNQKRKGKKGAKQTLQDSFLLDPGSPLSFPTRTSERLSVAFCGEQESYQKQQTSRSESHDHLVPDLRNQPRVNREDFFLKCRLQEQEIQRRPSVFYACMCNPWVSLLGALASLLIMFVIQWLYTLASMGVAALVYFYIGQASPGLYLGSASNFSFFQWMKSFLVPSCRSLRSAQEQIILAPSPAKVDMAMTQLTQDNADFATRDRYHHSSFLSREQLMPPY", "test": "Radiolabeled NMN uptake in Slc12a8-OE and control NIH3T3 cells", "assay_type": "cell-based", "settings": "Slc12a8-OE NIH3T3 cells, 4 min, 37° C., control background subtracted", "experimental": "NMN uptake analyses with radiolabeled NMN. Control and Slc12a8-OE NIH3T3 cells were harvested by centrifugation (400×g, 5 min), washed once in HBSS, and incubated at 37° C. in HBSS [pH 7.5] (5×10^6 cells/ml) containing 100 nM 3H-β-Nicotinamide mononucleotide (9 Ci/mmol; Moravek Biochemicals, CA) and unlabeled NMN to make the final concentration 25 μM. At the designated time points (1, 3, 5 and 10 minutes), aliquots of the cells (100 μl) were collected and placed in 1.5-ml microcentrifuge tubes containing silicone-mineral oil (density, 1.015; Sigma-Aldrich) on the top of 2 M potassium hydroxide solution, followed by centrifugation at 16,000×g for 30s. Cells were separated from the buffer and pelleted through the silicone-mineral oil layer. The radioactivity in these cell pellets was determined by a liquid scintillation counter. For calculating Km and Vmax, the same conditions were used as described above, but with various total concentrations of NMN, ranging from 1 μM to 100 μM. At the 4-min time point, 100 μl of cell suspension was collected and pelleted in the same way described above. The radioactivity in cell pellets was determined by a liquid scintillation counter. The radioactivity measured in control NIH3T3 cells was subtracted to calculate Slc12a8-specific NMN uptake in Slc12a8-OE NIH3T3 cells.\nUptake of NMN was measured as described in methods under “NMN uptake analyses with radiolabeled NMN” using 25 μM ^3H-NMN at 37° C. in control and Slc12a8-OE NIH3T3 cells over 10 min in Hanks' buffer [ph7.5] with Mg2+ and Ca2+ (n=12; analyzed by ANOVA with Sidak's test). […] This Km is qualitatively consistent with a detected range of NMN concentrations in mouse plasma and erythrocytes (Revollo, J. R. et al., Cell Metab., 6, 363-375, 2007; Ramsey, K. M., et al., Science, 324, 651-654, 2009; Yamada, K., et al., Anal. Biochem., 352, 282-285, 2006)."}, "[1]": {"test": "Jejunum NAD+ levels 60 min after oral gavage of NMN", "assay_type": "in vivo, mouse", "settings": "60 min after oral gavage (500 mg/kg), Slc12a8-knockdown mice compared to control mice", "text": "In vivo Slc12a8 knockdown experiment. To generate shRNA-expressing lentiviral constructs, 56-bp double-stranded oligonucleotides, each of which contains a sense target sequence, a microRNA-based loop sequence ([…]; SEQ ID NO: 4), an antisense sequence, a termination sequence of four thymidines, and appropriate restriction enzyme sites at both ends, were generated for mouse Slc12a8 and firefly luciferase (fLuc) and cloned into the U6-PGK-GFP vector provided by the Viral Vectors Core at Washington University School of Medicine. The sense Slc12a8 sequence is ‘5-[…]-3’ (SEQ ID NO: 5). Lentiviruses were produced as previously described (Satoh, A. et al., Cell Metab., 18, 416-430, 2013). Knockdown efficiency was tested using primary intestinal cultures (Sato, T. & Clevers, H., Methods Mol. Biol. 945, 319-328, 2013). Large-scale lentivirus production was carried on by the Viral Vectors Core at the Hope Center for Neurological Disorders at Washington University. […]\nLentiviruses carrying control firefly luciferase (fLuc) shRNA and Slc12a8 shRNA were generated as described supra. […] Slc12a8 protein expression levels in control shfLuc lentivirus- and shSlc12a8 lentivirus-infected jejunum and ileum samples were measured through Western blots (FIG. 17). […] Then NAD+ levels were measured by HPLC in these samples (analyzed by ANOVA with Tukey's test)."}}}
{"compound": "NC(=O)c1ccc[n+]([C@@H]2O[C@H](COP(=O)([O-])O)[C@@H](O)[C@H]2O)c1", "note": "[NMN, nicotinamide mononucleotide]", "values": [{"measurement": "Km", "setting": "Slc12a8", "value": "34.1 ± 8.3", "unit": "µM"}, {"measurement": "Vmax", "setting": "Slc12a8", "value": "11.5 ± 1.2", "unit": "pmol/min/mg"}, {"measurement": "NAD+ levels in the jejunum", "setting": "[1]", "value": "significantly decreased"}]}
